Results on two compounds are retold here after patent publication US20230322837A1, “PREPARATION METHOD FOR AND APPLICATION OF CLASS OF STELLATE BIFUNCTIONAL COMPOUNDS TARGETING SPIKE PROTEIN AGAINST RESPIRATORY TRACT INFECTION VIRUS AND SALT THEREOF” (priority 2020, published 2023).

Experiment [1] deals with Lentivirus-NC virus infection of H1299 cells. The settings on record: different virus titers (MOI 5, 10, 20), FIGS. 7 and 9. On the procedure:
H1299 Human lung cancer cells, cultured with RPMI-1640 10% fetal bovine serum in an incubator with 5% CO2 and saturated humidity at 37° C. • RPMI-1640 + 10% Fetal Bovine Serum • PBS (Life Science Products&Services) • Trypsin-EDTA Solution (Gibco) • 24-well plate (Corning) • Lentivirus-NC virus solution (GenePharma, 1×10^9 TU/mL)
Principles and procedures for virus infection experiment • 1.

Experiment [2] relates to plasma coagulation. To be noted: in vitro, rabbit platelet poor plasma, x±s, n = 3. On the procedure: (§1) Coagulation is a complex process involving a series of coagulation factors, which essentially include two pathways, “intrinsic coagulation pathway” and “extrinsic coagulation pathway”. Activated partial thromboplastin time (APTT), prothrombin time (PT), and thrombin time (TT) are adopted usually in the laboratory to evaluate the anticoagulant effect.
(§2) New Zealand rabbits were anaesthetized with chloral hydrate, heart puncture was conducted to collect blood into an anticoagulant tube containing ⅒ vol 3.8% sodium citrate, followed by centrifuging at 3000 rpm for 15 min, supernatant was collected to obtain platelet poor plasma which was stored in a refrigerator for later use.
(§3) The compounds were prepared with DMSO to obtain stock solutions with a concentration of 10 mM. Samples to be tested were diluted with normal saline during the test, with a final concentration of 50 µM, 12.5 µM, 3.13 µM, 0.78 µM, 0.20 µM, and 0.05 µM.
PT Assay: 50 µL of plasma was mixed well with 20 µL of samples to be tested respectively, the mixture was pre-heated at 37° C. for 2 min, followed by incubation at 37° C. for 3 min, and addition of 100 µL of PT reagent. The mixture was mixed well and tested to record the coagulation time.
(§4) One-way analysis of variance (One-Way ANOVA) was performed for multi-group comparison; pairwise comparison for means among groups was performed, with Dunnett’s multiple comparisons test in case of homogeneity of variance, and Dunnett’s T3 multiple comparisons test in case of heterogeneity of variance. P <0.05 means statistical significance.

For experiment [3], the system named is plasma coagulation. The settings on record: for APTT: in vitro, rabbit platelet poor plasma, x±s, n = 3. The procedure: as §1, §2, §3
APTT Assay: 100 µL of plasma was mixed well with 50 µL of samples to tested respectively, the mixture was pre-heated at 37° C. for 2 min, then 50 µL of APTT reagent was added, followed by incubation at 37° C. for 3 min, addition of 50 µL of 0.025 mol/L CaCl2, and detection on an automatic blood coagulation analyzer to record the coagulation time.
as §4

The subject of experiment [4] is plasma coagulation. The settings on record: in vitro, rabbit platelet poor plasma, x±s, n = 3. The procedure:
as §1, §2, §3
TT Assay: 100 µL of prepared plasma was mixed well with 50 µL of the sample mixture to be tested, and pre-heated at 37° C. for 2 min, followed by addition of 50 µL of TT reagent to the mixture and detection to record results of the instrument.
as §4
The source holds these as a separate data set.

Read-outs that look alike come from different tables or passages of the source.

In the case of `O=C(Oc1ccc(-c2coc3c(OC(=O)c4cc(O)c(O)c(O)c4)cc(OC(=O)c4cc(O)c(O)c(O)c4)c(OC(=O)c4cc(O)c(O)c(O)c4)c3c2=O)cc1)c1cc(O)c(O)c(O)c1` [Compound 4], the “inhibition of virus infection in cells” value is listed as “significantly inhibited virus infection in cells” in experiment [1] (10 µM concentration) and “significantly inhibit virus infection in cells” in experiment [1] (20 µM concentration).
For the compound `O=C(O)CC1OC(O)C(OC(=O)c2cc(O)c(O)c(O)c2)C(OC(=O)c2cc(O)c(O)c(O)c2)C1OC(=O)c1cc(O)c(O)c(O)c1` (stereo not shown) [Compound 6], the PT with plasma coagulation [2] (0.05 µM) was 9.76 ± 0.85 s; with plasma coagulation [2] (0.20 µM), 10.11 ± 0.30 s; in the experiment with plasma coagulation [2] (0.78 µM) it was 10.54 ± 0.37 s; with plasma coagulation [2] (3.13 µM), 12.83 ± 0.19 s; in the experiment on plasma coagulation [2] (12.50 µM) it was 13.73 ± 0.17 s; with plasma coagulation [2] (50.00 µM), 16.66 ± 0.45 s. Also, the “inhibition of virus infection in cells” value in experiment [1] (20 µM concentration) was “significantly inhibit virus infection in cells”. The “inhibition of plasma coagulation (coagulation indexes APTT, PT, and TT)” value with plasma coagulation [3] (dose gradients 50.00, 12.50, 3.13, 0.78, 0.20, 0.05 (printed µL), covers APTT, PT and TT) is “dose-dependently inhibit plasma coagulation”. For the same compound, the APTT in the experiment with plasma coagulation [3] (0.05 µM) was 20.12 ± 0.09 s; in the experiment on plasma coagulation [3] (0.20 µM), 24.03 ± 1.05 s; in the experiment on plasma coagulation [3] (0.78 µM), 26.84 ± 0.79 s; in the experiment with plasma coagulation [3] (3.13 µM), 37.72 ± 1.83 s; with plasma coagulation [3] (12.50 µM), 75.11 ± 2.58 s; in the experiment with plasma coagulation [3] (50.00 µM), 106.51 ± 0.94 s. Moreover, the TT was 23.35 ± 0.31 s in the experiment with plasma coagulation [4] (0.05 µM); 22.90 ± 0.09 s in the experiment with plasma coagulation [4] (0.20 µM); 23.95 ± 0.07 s in the experiment with plasma coagulation [4] (0.78 µM); 25.25 ± 0.27 s with plasma coagulation [4] (3.13 µM); 28.89 ± 0.68 s in the experiment with plasma coagulation [4] (12.50 µM); 38.87 ± 0.77 s in the experiment on plasma coagulation [4] (50.00 µM).
